Reference: patent US20110251238A1, “PPAR AGONIST COMPOSITIONS AND METHODS OF USE” (BIOPHARMED, priority 2008, published 2011)
≈ marks a conversion by molar mass, not a printed value. Where a name gives a salt, the structure may show the parent alone. Read-outs that look alike come from different tables or passages of the source.

Assays:
[1] = test system: bloodstream forms of T. brucei and T. congolense; experiment: Trypanocidal activity in vitro, Alamar Blue assay; assay type: cell-based, Trypanosoma brucei and T. congolense
Excerpt: Trypanosoma brucei and T. congolense are the causative agents of sleeping sickness in humans and nagana in cattle, respectively. The protozoan parasites live extracellularlyin blood and tissue fluids of mammals and are transmitted by the bite of infected tsetse flies (Glossina spp.). Here the trypanocidal activity against bloodstream forms of T. brucei and T. congolense of bis-8-hydroxy quinoline N-substituted benzylamines derivatives was investigated in vitro, according to methods described in. Steverding et al. (2006) Kinetoplastid Biology and Disease, 5(3): 1-5; Hongmance et al., (2007) Antimicrob. Agents Chemother. 51:1105-1106; and Zhao et al., (2005) Bio-org. Med. Chem.; 13: 3921-3926. Cells were seeded into 96-well tissue culture plates in 200 μl medium containing various concentrations of analogues dissolved in H2O. The controls contained the respective solvent alone. […] After 24 h (trypanosomes) or 43 h (HL-60) incubation, 20 μl of the colorimetric viability indicator Alamar Blue® was added to each well. The cells were incubated for a further 24 h (trypanosomes) or 5 h (HL-60) so that the total incubation time was 48 h. Then, the plates were read on a Dynatech MR5000ELISA reader (Denkendorf, Germany),using a test wavelength of 550 nm and a reference wave length of 630 nm. Each test was set up in duplicate and repeated three times. For comparison, the general cytotoxicity of the compounds was assayed with human myeloid leukaemia HL-60 cells. The anti-trypanosomal activities and the general cytotoxicities of the new analogues were evaluated using the Alamar Blue® assay.

[2] = test system: KB3 (epitheloid lung cancer) cell lines; experiment: Cell growth inhibition (cytotoxicity), MTS assay, KB3 cell line; assay type: cell-based; conditions: for cytotoxic activity in words: structure-cytotoxicity discussion
Method: Cell growth inhibition was determined by the MTS assay; the number of viable cells were proportional to the extent of formazan production in the presence or absence of drugs. […]

[3] = KB3, Table 3A, MTS assay, triplicate, read-out: KB3 IC50
[4] = 50% growth inhibition, 48 h total incubation, read-out: GI50
[5] = lowest concentration at which all cells were killed, 48 h total incubation, read-out: MIC
[6] = KB3, Table 3B, MTS assay, triplicate, read-out: KB3 IC50
[7] = Table 3A, MTS assay, triplicate, read-out: KB3 IC50

Row | Molecule | GI50 [1, 4] | MIC [1, 5] | IC50 [2, 6] | also measured
1 | Cc1ccc(CNCc2ccc(O)c3ncccc23)cc1 [BPM19,167, 5-((4-methylbenzylamino)methyl)quinolin-8-ol dihydrochloride] | – | – | – | GI50 ([1]; 48 h): 14800 ± 2590 nM; MIC ([1]; 48 h): 100 µM
2 | Oc1ccc(CN(Cc2ccc(OC(F)(F)F)cc2)Cc2ccc(O)c3ncccc23)c2cccnc12 [BPM19,205, 5,5′-(4-(trifluoromethoxy)benzylazanediyl)bis(methylene)diquinolin-8-ol] | 320 ± 20 nM | 1 µM (≈ 0.505 µg/mL) | – | IC50 [2, 3]: 100 to 1000 nM
3 | Cc1ccc2c(CN(Cc3ccc(C(F)(F)F)cc3)Cc3ccc(O)c4nc(C)ccc34)ccc(O)c2n1 [BPM19,876, 5,5′-(4-trifluoromethylbenzylazanediyl)bis(methylene)bis(2-methylquinolin-8-ol)] | 3710 ± 240 nM | 100 µM (≈ 51.8 µg/mL) | – | –
4 | CC(=O)O[C@@]12CO[C@@H]1C[C@H](O)[C@@]1(C)C(=O)[C@H](O)C3=C(C)[C@@H](OC(=O)[C@H](O)[C@@H](NC(=O)OC(C)(C)C)c4ccccc4)C[C@@](O)([C@@H](OC(=O)c4ccccc4)[C@H]21)C3(C)C [docetaxel, reference compound] | – | – | – | IC50 ([2]; compared with KB3 values, read-out: IC50 value of reference drug): 0.1 nM
5 | Oc1ccc(CN(Cc2ccc(O)c3ncccc23)CC2CCCO2)c2cccnc12 (stereo not shown) [BPM19,197, 5,5′-((tetrahydrofuran-2-yl)methylazanediyl)bis(methylene)diquinolin-8-ol] | 2990 ± 50 nM | 10 µM (≈ 4.15 µg/mL) | – | IC50 [2, 3]: 10000 nM
6 | Cc1ccc(C(=O)NCc2ccc(O)c3ncccc23)cc1 [BPM18,203, N-((8-hydroxyquinolin-5-yl)methyl)-4-methylbenzamide] | – | – | 1000 nM | CC50 ([2]; KB3 cell line): 1000 nM; cytotoxic activity in words ([2]; KB3 cell line): inactive or only weakly active
7 | Oc1ccc(CNCc2ccc(C(F)(F)F)cc2)c2cccnc12 [BPM19,191, 5-((4-(trifluoromethyl)benzylamino)methyl)quinolin-8-ol] | – | – | 10000 nM | –
8 | Oc1ccc(CN(Cc2ccccc2)Cc2ccccc2)c2cccnc12 [BPM19,230, 5-((dibenzylamino)methyl)quinolin-8-ol] | – | – | 1000 nM | –
9 | 5,5′-(2-(pyridin-2-yl)ethylazanediyl)bis(methylene)diquinolin-8-ol) [BPM19,193] | – | – | – | IC50 [2, 7]: > 10000 nM
10 | Cn1cccc1CN(Cc1ccc(O)c2ncccc12)Cc1ccc(O)c2ncccc12 [BPM19,216, 5,5′-((1-methyl-1H-pyrrol-2-yl)methylazanediyl)bis(methylene)diquinolin-8-ol] | 320 ± 10 nM | 1 µM (≈ 0.425 µg/mL) | – | –
11 | Oc1ccc(CNCc2cccc(C(F)(F)F)c2)c2cccnc12 [BPM19,114, 5-((3-(trifluoromethyl)benzylamino)methyl)quinolin-8-ol] | – | – | 200 nM | cytotoxic activity in words ([2]; KB3 cell line): significant cytotoxic activity
12 | Oc1ccc(N(Cc2cccc3ccccc23)c2ccc(O)c3ncccc23)c2cccnc12 [BPM19,702, 5,5′-(naphthalen-1-ylmethylazanediyl)diquinolin-8-ol] | 290 nM | 1 µM (≈ 0.444 µg/mL) | – | –
13 | Oc1ccc(CNCc2ccccc2)c2cccnc12 [BPM18,726, 5-((benzylamino)methyl)quinolin-8-ol dihydrochloride] | – | – | > 1000 nM | –
14 | 5,5′-(2-(pyrrolidin-1-yl)ethylazanediyl)bis(methylene)diquinolin-8-ol) [BPM19,214] | – | – | – | IC50 [2, 7]: 1000 nM
